Source: the supplement of paper PMC10307832

Legend:
Experiment in all cases: relative viability (nuclei count vs DMSO), 5 days (fraction); higher = more cells survive
Dinaciclib + Pictilisib = compound: CCc1cnn2c(NCc3ccc[n+]([O-])c3)cc(N3CCCC[C@H]3CCO)nc12 [Dinaciclib] + CS(=O)(=O)N1CCN(Cc2cc3nc(-c4cccc5[nH]ncc45)nc(N4CCOCC4)c3s2)CC1 [Pictilisib] (partner 1 µM)
Procedure, shortened: (§1)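 After 5 days of treatment, lung cancer cells in 1536-well plates were fixed and stained in a single step (final 0.05% Triton X-100, 1% formaldehyde, 1 ug/ml Hoechst) and their nuclei counted on 4× images. Treatment had been applied by pin tool the day after seeding as one drug alone or as a fixed anchor-drug dose with five library-drug doses (not always all listed) in √10 steps. Relative viability is the nuclei count of treated wells divided by that of vehicle wells, and values are medians of duplicate plates.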

Dinaciclib + Lapatinib = compound: CCc1cnn2c(NCc3ccc[n+]([O-])c3)cc(N3CCCC[C@H]3CCO)nc12 [Dinaciclib] + CS(=O)(=O)CCNCc1ccc(-c2ccc3ncnc(Nc4ccc(OCc5cccc(F)c5)c(Cl)c4)c3c2)o1 [Lapatinib] (partner 2 µM)
Procedure, shortened: as §1

Dinaciclib + Foretinib = compound: CCc1cnn2c(NCc3ccc[n+]([O-])c3)cc(N3CCCC[C@H]3CCO)nc12 [Dinaciclib] + COc1cc2c(Oc3ccc(NC(=O)C4(C(=O)Nc5ccc(F)cc5)CC4)cc3F)ccnc2cc1OCCCN1CCOCC1 [Foretinib] (partner 0.25 µM)
Procedure, shortened: as §1

Dinaciclib + Bortezomib = compound: CCc1cnn2c(NCc3ccc[n+]([O-])c3)cc(N3CCCC[C@H]3CCO)nc12 [Dinaciclib] + CC(C)C[C@H](NC(=O)[C@H](Cc1ccccc1)NC(=O)c1cnccn1)B(O)O [Bortezomib] (partner 0.002 µM)
Procedure, shortened: as §1

Dinaciclib + Linsitinib = compound: CCc1cnn2c(NCc3ccc[n+]([O-])c3)cc(N3CCCC[C@H]3CCO)nc12 [Dinaciclib] + C[C@]1(O)C[C@@H](c2nc(-c3ccc4ccc(-c5ccccc5)nc4c3)c3c(N)nccn32)C1 [Linsitinib] (partner 1 µM)
Procedure, shortened: as §1

Dinaciclib + Olaparib = compound: CCc1cnn2c(NCc3ccc[n+]([O-])c3)cc(N3CCCC[C@H]3CCO)nc12 [Dinaciclib] + O=C(c1cc(Cc2n[nH]c(=O)c3ccccc23)ccc1F)N1CCN(C(=O)C2CC2)CC1 [Olaparib] (partner 8 µM)
Procedure, shortened: as §1

Dinaciclib + Navitoclax = compound: CCc1cnn2c(NCc3ccc[n+]([O-])c3)cc(N3CCCC[C@H]3CCO)nc12 [Dinaciclib] + CC1(C)CCC(c2ccc(Cl)cc2)=C(CN2CCN(c3ccc(C(=O)NS(=O)(=O)c4ccc(N[C@H](CCN5CCOCC5)CSc5ccccc5)c(S(=O)(=O)C(F)(F)F)c4)cc3)CC2)C1 [Navitoclax] (partner 0.5 µM)
Procedure, shortened: as §1

Dinaciclib + Alpelisib = compound: CCc1cnn2c(NCc3ccc[n+]([O-])c3)cc(N3CCCC[C@H]3CCO)nc12 [Dinaciclib] + Cc1nc(NC(=O)N2CCC[C@H]2C(N)=O)sc1-c1ccnc(C(C)(C)C(F)(F)F)c1 [Alpelisib] (partner 2 µM)
Procedure, shortened: as §1

Dinaciclib + Crizotinib = compound: CCc1cnn2c(NCc3ccc[n+]([O-])c3)cc(N3CCCC[C@H]3CCO)nc12 [Dinaciclib] + C[C@@H](Oc1cc(-c2cnn(C3CCNCC3)c2)cnc1N)c1c(Cl)ccc(F)c1Cl [Crizotinib] (partner 1 µM)
Procedure, shortened: as §1

Dinaciclib = compound: CCc1cnn2c(NCc3ccc[n+]([O-])c3)cc(N3CCCC[C@H]3CCO)nc12 [Dinaciclib]
Procedure, shortened: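 After an overnight hold at 37 °C, lung cancer cell lines in 1536-well plates were pinned with five library-drug doses (not always all listed), each √10 from the next, on vehicle-anchored plates. The cells stayed 5 days without fresh medium, then a one-step fix, permeabilisation and Hoechst stain preceded 4× imaging and MetaXpress nuclear counts. A plate passed only with control CV under 25% and at least one doubling. Viability is the median, over plates, of treated-well nuclei relative to vehicle-well nuclei.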

Dinaciclib + Luminespib = compound: CCc1cnn2c(NCc3ccc[n+]([O-])c3)cc(N3CCCC[C@H]3CCO)nc12 [Dinaciclib] + CCNC(=O)c1noc(-c2cc(C(C)C)c(O)cc2O)c1-c1ccc(CN2CCOCC2)cc1 [Luminespib] (partner 0.01 µM)
Procedure, shortened: as §1

Dinaciclib + OSI-027 = compound: CCc1cnn2c(NCc3ccc[n+]([O-])c3)cc(N3CCCC[C@H]3CCO)nc12 [Dinaciclib] + COc1cccc2cc(-c3nc([C@H]4CC[C@H](C(=O)O)CC4)n4ncnc(N)c34)[nH]c12 [OSI-027] (partner 0.5 µM)
Procedure, shortened: as §1

Dinaciclib + Dasatinib = compound: CCc1cnn2c(NCc3ccc[n+]([O-])c3)cc(N3CCCC[C@H]3CCO)nc12 [Dinaciclib] + Cc1nc(Nc2ncc(C(=O)Nc3c(C)cccc3Cl)s2)cc(N2CCN(CCO)CC2)n1 [Dasatinib] (partner 0.075 µM)
Procedure, shortened: as §1

Dinaciclib + Phenformin = compound: CCc1cnn2c(NCc3ccc[n+]([O-])c3)cc(N3CCCC[C@H]3CCO)nc12 [Dinaciclib] + N=C(N)NC(=N)NCCc1ccccc1 [Phenformin] (partner 250 µM)
Procedure, shortened: as §1

Dinaciclib + Tozasertib = compound: CCc1cnn2c(NCc3ccc[n+]([O-])c3)cc(N3CCCC[C@H]3CCO)nc12 [Dinaciclib] + Cc1cc(Nc2cc(N3CCN(C)CC3)nc(Sc3ccc(NC(=O)C4CC4)cc3)n2)n[nH]1 [Tozasertib] (partner 0.1 µM)
Procedure, shortened: as §1

## NCI-H1299
Dinaciclib + Pictilisib; first compound 0.009487 µM
  relative viability: 0.416
Dinaciclib + Pictilisib; first compound 0.03 µM
  relative viability: 0.0311
Dinaciclib + Pictilisib; first compound 0.09487 µM
  relative viability: 0.0181
Dinaciclib + Pictilisib; first compound 0.3 µM
  relative viability: 0.0214
Dinaciclib + Lapatinib; first compound 0.009487 µM
  relative viability: 0.824
Dinaciclib + Lapatinib; first compound 0.03 µM
  relative viability: 0.198
Dinaciclib + Lapatinib; first compound 0.09487 µM
  relative viability: 0.137
Dinaciclib + Lapatinib; first compound 0.3 µM
  relative viability: 0.124
Dinaciclib + Foretinib; first compound 0.009487 µM
  relative viability: 0.986
Dinaciclib + Foretinib; first compound 0.03 µM
  relative viability: 0.202
Dinaciclib + Foretinib; first compound 0.09487 µM
  relative viability: 0.104
Dinaciclib + Foretinib; first compound 0.3 µM
  relative viability: 0.088
Dinaciclib + Bortezomib; first compound 0.009487 µM
  relative viability: 1.05
Dinaciclib + Bortezomib; first compound 0.03 µM
  relative viability: 0.216
Dinaciclib + Bortezomib; first compound 0.09487 µM
  relative viability: 0.142
Dinaciclib + Bortezomib; first compound 0.3 µM
  relative viability: 0.135
Dinaciclib + Linsitinib; first compound 0.009487 µM
  relative viability: 0.883
Dinaciclib + Linsitinib; first compound 0.03 µM
  relative viability: 0.24
Dinaciclib + Linsitinib; first compound 0.09487 µM
  relative viability: 0.103
Dinaciclib + Linsitinib; first compound 0.3 µM
  relative viability: 0.0705
Dinaciclib + Olaparib; first compound 0.009487 µM
  relative viability: 0.962
Dinaciclib + Olaparib; first compound 0.03 µM
  relative viability: 0.16
Dinaciclib + Olaparib; first compound 0.09487 µM
  relative viability: 0.0946
Dinaciclib + Olaparib; first compound 0.3 µM
  relative viability: 0.104
Dinaciclib + Navitoclax; first compound 0.009487 µM
  relative viability: 1.12
Dinaciclib + Navitoclax; first compound 0.03 µM
  relative viability: 0.27
Dinaciclib + Navitoclax; first compound 0.09487 µM
  relative viability: 0.107
Dinaciclib + Navitoclax; first compound 0.3 µM
  relative viability: 0.107
Dinaciclib + Alpelisib; first compound 0.009487 µM
  relative viability: 1.09
Dinaciclib + Alpelisib; first compound 0.03 µM
  relative viability: 0.821
Dinaciclib + Alpelisib; first compound 0.09487 µM
  relative viability: 0.15
Dinaciclib + Alpelisib; first compound 0.3 µM
  relative viability: 0.188
Dinaciclib + Crizotinib; first compound 0.009487 µM
  relative viability: 0.709
Dinaciclib + Crizotinib; first compound 0.03 µM
  relative viability: 0.681
Dinaciclib + Crizotinib; first compound 0.09487 µM
  relative viability: 0.144
Dinaciclib + Crizotinib; first compound 0.3 µM
  relative viability: 0.111
Dinaciclib; 0.009487 µM
  relative viability: 0.98
Dinaciclib; 0.03 µM
  relative viability: 0.371
Dinaciclib; 0.09487 µM
  relative viability: 0.121
Dinaciclib; 0.3 µM
  relative viability: 0.0997

## Calu-6
Dinaciclib + Pictilisib; first compound 0.009487 µM
  relative viability: 0.523
Dinaciclib + Pictilisib; first compound 0.03 µM
  relative viability: 0.113
Dinaciclib + Pictilisib; first compound 0.09487 µM
  relative viability: 0.116
Dinaciclib + Pictilisib; first compound 0.3 µM
  relative viability: 0.114
Dinaciclib + Lapatinib; first compound 0.009487 µM
  relative viability: 0.914
Dinaciclib + Lapatinib; first compound 0.03 µM
  relative viability: 0.112
Dinaciclib + Lapatinib; first compound 0.09487 µM
  relative viability: 0.13
Dinaciclib + Lapatinib; first compound 0.3 µM
  relative viability: 0.134
Dinaciclib + Foretinib; first compound 0.009487 µM
  relative viability: 0.757
Dinaciclib + Foretinib; first compound 0.03 µM
  relative viability: 0.0769
Dinaciclib + Foretinib; first compound 0.09487 µM
  relative viability: 0.0773
Dinaciclib + Foretinib; first compound 0.3 µM
  relative viability: 0.0929
Dinaciclib + Bortezomib; first compound 0.009487 µM
  relative viability: 0.54
Dinaciclib + Bortezomib; first compound 0.03 µM
  relative viability: 0.128
Dinaciclib + Bortezomib; first compound 0.09487 µM
  relative viability: 0.133
Dinaciclib + Bortezomib; first compound 0.3 µM
  relative viability: 0.123
Dinaciclib + Linsitinib; first compound 0.009487 µM
  relative viability: 1.02
Dinaciclib + Linsitinib; first compound 0.03 µM
  relative viability: 0.0954
Dinaciclib + Linsitinib; first compound 0.09487 µM
  relative viability: 0.0924
Dinaciclib + Linsitinib; first compound 0.3 µM
  relative viability: 0.103
Dinaciclib + Olaparib; first compound 0.009487 µM
  relative viability: 0.527
Dinaciclib + Olaparib; first compound 0.03 µM
  relative viability: 0.111
Dinaciclib + Olaparib; first compound 0.09487 µM
  relative viability: 0.1
Dinaciclib + Olaparib; first compound 0.3 µM
  relative viability: 0.109
Dinaciclib + Navitoclax; first compound 0.009487 µM
  relative viability: 0.524
Dinaciclib + Navitoclax; first compound 0.03 µM
  relative viability: 0.0805
Dinaciclib + Navitoclax; first compound 0.09487 µM
  relative viability: 0.0782
Dinaciclib + Navitoclax; first compound 0.3 µM
  relative viability: 0.0765
Dinaciclib + Alpelisib; first compound 0.009487 µM
  relative viability: 0.498
Dinaciclib + Alpelisib; first compound 0.03 µM
  relative viability: 0.133
Dinaciclib + Alpelisib; first compound 0.09487 µM
  relative viability: 0.118
Dinaciclib + Alpelisib; first compound 0.3 µM
  relative viability: 0.128
Dinaciclib + Crizotinib; first compound 0.009487 µM
  relative viability: 0.619
Dinaciclib + Crizotinib; first compound 0.03 µM
  relative viability: 0.208
Dinaciclib + Crizotinib; first compound 0.09487 µM
  relative viability: 0.0928
Dinaciclib + Crizotinib; first compound 0.3 µM
  relative viability: 0.126
Dinaciclib; 0.009487 µM
  relative viability: 0.969
Dinaciclib; 0.03 µM
  relative viability: 0.145
Dinaciclib; 0.09487 µM
  relative viability: 0.117
Dinaciclib; 0.3 µM
  relative viability: 0.131

## NCI-H1623
Dinaciclib + Luminespib; first compound 0.009487 µM
  relative viability: 0.428
Dinaciclib + Luminespib; first compound 0.03 µM
  relative viability: 0.262
Dinaciclib + Luminespib; first compound 0.09487 µM
  relative viability: 0.132
Dinaciclib + Luminespib; first compound 0.3 µM
  relative viability: 0.144
Dinaciclib + OSI-027; first compound 0.009487 µM
  relative viability: 0.397
Dinaciclib + OSI-027; first compound 0.03 µM
  relative viability: 0.236
Dinaciclib + OSI-027; first compound 0.09487 µM
  relative viability: 0.231
Dinaciclib + OSI-027; first compound 0.3 µM
  relative viability: 0.2
Dinaciclib + Dasatinib; first compound 0.009487 µM
  relative viability: 0.518
Dinaciclib + Dasatinib; first compound 0.03 µM
  relative viability: 0.36
Dinaciclib + Dasatinib; first compound 0.09487 µM
  relative viability: 0.207
Dinaciclib + Dasatinib; first compound 0.3 µM
  relative viability: 0.231
Dinaciclib + Foretinib; first compound 0.009487 µM
  relative viability: 0.831
Dinaciclib + Foretinib; first compound 0.03 µM
  relative viability: 0.273
Dinaciclib + Foretinib; first compound 0.09487 µM
  relative viability: 0.235
Dinaciclib + Foretinib; first compound 0.3 µM
  relative viability: 0.234
Dinaciclib + Phenformin; first compound 0.009487 µM
  relative viability: 0.609
Dinaciclib + Phenformin; first compound 0.03 µM
  relative viability: 0.259
Dinaciclib + Phenformin; first compound 0.09487 µM
  relative viability: 0.213
Dinaciclib + Phenformin; first compound 0.3 µM
  relative viability: 0.225
Dinaciclib + Tozasertib; first compound 0.009487 µM
  relative viability: 0.437
Dinaciclib + Tozasertib; first compound 0.03 µM
  relative viability: 0.249
Dinaciclib + Tozasertib; first compound 0.09487 µM
  relative viability: 0.207
Dinaciclib + Tozasertib; first compound 0.3 µM
  relative viability: 0.193
Dinaciclib; 0.009487 µM
  relative viability: 1.02
Dinaciclib; 0.03 µM
  relative viability: 0.332
Dinaciclib; 0.09487 µM
  relative viability: 0.26
Dinaciclib; 0.3 µM
  relative viability: 0.196
